Values of other authors, collected in patent publication US11478494B2, “Methods and substances for prevention and treatment of neurodegenerative diseases” (Locus IP Company, LLC, priority 2017, dated 2022).
*1 amine or outer side, *2 acyl side, *3 side chain or, on linkers, in order; H or OH if unused. Where a SMILES comes first, the peptide text is derived from it. Bridges are numbered along the chain shown (N, C = ends). [ ]: non-standard residue; d: D form. X1 = CC(C)CCCCCCCCC[C@H](CC(=O)[*:1])O[*:2]

Columns and labels:
[1] = surfactin administration
[2] = oral administration

CC(C)CCCCCCCCC[C@@H]1CC(=O)N[C@@H](CCC(=O)O)C(=O)N[C@@H](CC(C)C)C(=O)N[C@H](CC(C)C)C(=O)N[C@@H](C(C)C)C(=O)N[C@@H](CC(=O)O)C(=O)N[C@H](CC(C)C)C(=O)N[C@@H](CC(C)C)C(=O)O1 [surfactin] (EL[dL]VD[dL]L; linker N-C via X1)
concentration without any significant toxic effects [1]: ≤ 25 µM

sophorolipid [SLP]
oral dose administered without toxicity [2]: ≤ 5 grams/kg of body weight
